Results taken from PubChem BioAssay (NCI).
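Tested at 5 concentrations; 48 h exposure; 96-well plates; endpoints linearly interpolated, else capped at highest concentration. GI50 is the concentration that inhibits growth by half. The concentration for full growth arrest is given as TGI.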

How the values were obtained:
Assay in all cases: NCI anticancer screen, dose series, 48 h
786-0 renal = test system: 786-0 renal
A498 renal = test system: A498 renal
A549 NSCLC = test system: A549 NSCLC
ACHN renal = test system: ACHN renal
BT-549 breast = test system: BT-549 breast
CAKI-1 renal = test system: CAKI-1 renal
CCRF-CEM leukemia = test system: CCRF-CEM leukemia
COLO 205 colon = test system: COLO 205 colon
DU-145 prostate = test system: DU-145 prostate
EKVX NSCLC = test system: EKVX NSCLC
HCC-2998 colon = test system: HCC-2998 colon
HCT-116 colon = test system: HCT-116 colon
HCT-15 colon = test system: HCT-15 colon
HL-60(TB) leukemia = test system: HL-60(TB) leukemia
HOP-62 NSCLC = test system: HOP-62 NSCLC
HOP-92 NSCLC = test system: HOP-92 NSCLC
IGROV1 ovarian = test system: IGROV1 ovarian
K-562 leukemia = test system: K-562 leukemia
KM12 colon = test system: KM12 colon
LOX IMVI melanoma = test system: LOX IMVI melanoma
M14 melanoma = test system: M14 melanoma
MCF7 breast = test system: MCF7 breast
MDA-MB-435 = test system: MDA-MB-435
MOLT-4 leukemia = test system: MOLT-4 leukemia
NCI-H226 lung = test system: NCI-H226 lung
NCI-H23 lung = test system: NCI-H23 lung
NCI-H460 lung = test system: NCI-H460 lung
NCI/ADR-RES ovarian = test system: NCI/ADR-RES ovarian
OVCAR-3 ovarian = test system: OVCAR-3 ovarian
OVCAR-4 ovarian = test system: OVCAR-4 ovarian
OVCAR-5 ovarian = test system: OVCAR-5 ovarian
OVCAR-8 ovarian = test system: OVCAR-8 ovarian
PC-3 prostate = test system: PC-3 prostate
RPMI-8226 leukemia = test system: RPMI-8226 leukemia
RXF 393 renal = test system: RXF 393 renal
SF-295 CNS = test system: SF-295 CNS
SK-MEL-2 melanoma = test system: SK-MEL-2 melanoma
SK-MEL-28 melanoma = test system: SK-MEL-28 melanoma
SK-MEL-5 melanoma = test system: SK-MEL-5 melanoma
SK-OV-3 ovarian = test system: SK-OV-3 ovarian
SN12C renal = test system: SN12C renal
SNB-19 CNS = test system: SNB-19 CNS
SNB-75 CNS = test system: SNB-75 CNS
SR leukemia = test system: SR leukemia
SW-620 colon = test system: SW-620 colon
T-47D breast = test system: T-47D breast
TK-10 renal = test system: TK-10 renal
U251 CNS = test system: U251 CNS
UACC-257 melanoma = test system: UACC-257 melanoma
UACC-62 melanoma = test system: UACC-62 melanoma
UO-31 renal = test system: UO-31 renal
HT29 colon = test system: HT29 colon
MDA-MB-231 breast = test system: MDA-MB-231 breast
SF-539 CNS = test system: SF-539 CNS
HS 578T breast = test system: HS 578T breast
SF-268 CNS = test system: SF-268 CNS

COC(=O)C1(C(=O)OC)N=C(C)OC1c1ccccc1O (centres undefined)
TGI (786-0 renal): > 100 µM | TGI (A498 renal): > 100 µM | TGI (A549 NSCLC): > 100 µM | TGI (ACHN renal): > 100 µM | TGI (BT-549 breast): > 100 µM | TGI (CAKI-1 renal): > 100 µM | TGI (CCRF-CEM leukemia): > 100 µM | TGI (COLO 205 colon): > 100 µM | TGI (DU-145 prostate): > 100 µM | TGI (EKVX NSCLC): > 100 µM | TGI (HCC-2998 colon): > 100 µM | TGI (HCT-116 colon): > 100 µM | TGI (HCT-15 colon): > 100 µM | TGI (HL-60(TB) leukemia): > 100 µM | TGI (HOP-62 NSCLC): > 100 µM | TGI (HOP-92 NSCLC): > 100 µM | TGI (IGROV1 ovarian): > 100 µM | TGI (K-562 leukemia): > 100 µM | TGI (KM12 colon): > 100 µM | TGI (LOX IMVI melanoma): > 100 µM | TGI (M14 melanoma): > 100 µM | TGI (MCF7 breast): > 100 µM | TGI (MDA-MB-435): > 100 µM | TGI (MOLT-4 leukemia): > 100 µM | TGI (NCI-H226 lung): > 100 µM | TGI (NCI-H23 lung): > 100 µM | TGI (NCI-H460 lung): > 100 µM | TGI (NCI/ADR-RES ovarian): > 100 µM | TGI (OVCAR-3 ovarian): > 100 µM | TGI (OVCAR-4 ovarian): > 100 µM | TGI (OVCAR-5 ovarian): > 100 µM | TGI (OVCAR-8 ovarian): > 100 µM | TGI (PC-3 prostate): > 100 µM | TGI (RPMI-8226 leukemia): > 100 µM | TGI (RXF 393 renal): > 100 µM | TGI (SF-295 CNS): > 100 µM | TGI (SK-MEL-2 melanoma): > 100 µM | TGI (SK-MEL-28 melanoma): > 100 µM | TGI (SK-MEL-5 melanoma): > 100 µM | TGI (SK-OV-3 ovarian): > 100 µM | TGI (SN12C renal): > 100 µM | TGI (SNB-19 CNS): > 100 µM | TGI (SNB-75 CNS): > 100 µM | TGI (SR leukemia): > 100 µM | TGI (SW-620 colon): > 100 µM | TGI (T-47D breast): > 100 µM | TGI (TK-10 renal): > 100 µM | TGI (U251 CNS): > 100 µM | TGI (UACC-257 melanoma): > 100 µM | TGI (UACC-62 melanoma): > 100 µM | TGI (UO-31 renal): > 100 µM

Cc1cc(CCC(=O)NCCNc2c3ccccc3nc3ccccc23)cc(C)c1O[Si](C)(C)C(C)(C)C
TGI (A498 renal): 2.02 µM | TGI (A549 NSCLC): 1.99 µM | TGI (ACHN renal): 3.05 µM | TGI (COLO 205 colon): 2.23 µM | TGI (DU-145 prostate): 2.63 µM | TGI (HL-60(TB) leukemia): 3.16 µM | TGI (HT29 colon): 1.71 µM | TGI (K-562 leukemia): 0.826 µM | TGI (LOX IMVI melanoma): 0.29 µM | TGI (MDA-MB-231 breast): 25.8 µM | TGI (MDA-MB-435): 1.04 µM | TGI (NCI-H226 lung): 33.4 µM | TGI (NCI/ADR-RES ovarian): 4.44 µM | TGI (OVCAR-3 ovarian): 3.57 µM | TGI (OVCAR-4 ovarian): 2.67 µM | TGI (SF-295 CNS): 2.27 µM | TGI (SF-539 CNS): 0.377 µM | TGI (SK-MEL-28 melanoma): 3.37 µM | TGI (SK-OV-3 ovarian): 3.01 µM | TGI (SN12C renal): 28.8 µM | TGI (UACC-257 melanoma): 3.51 µM | TGI (UACC-62 melanoma): 27.6 µM

CCn1cc(CNc2ccc(C(=O)Nc3cc4cc(OC)c(OC)cc4c(C)n3)cc2)c(C)n1
GI50 (786-0 renal): 28.6 µM | TGI (786-0 renal): > 100 µM | GI50 (A498 renal): 4.29 µM | TGI (A498 renal): > 100 µM | GI50 (HOP-62 NSCLC): 2.71 µM | TGI (HOP-62 NSCLC): 7.18 µM | GI50 (HS 578T breast): 5.32 µM | TGI (HS 578T breast): > 100 µM | GI50 (IGROV1 ovarian): > 100 µM | TGI (IGROV1 ovarian): > 100 µM | GI50 (MDA-MB-231 breast): > 100 µM | TGI (MDA-MB-231 breast): > 100 µM | GI50 (OVCAR-4 ovarian): 3.07 µM | TGI (OVCAR-4 ovarian): > 100 µM | GI50 (OVCAR-5 ovarian): > 100 µM | TGI (OVCAR-5 ovarian): > 100 µM | GI50 (RXF 393 renal): > 100 µM | TGI (RXF 393 renal): > 100 µM | GI50 (SF-268 CNS): 33.6 µM | TGI (SF-268 CNS): > 100 µM | GI50 (SNB-75 CNS): 4.72 µM | TGI (SNB-75 CNS): > 100 µM | GI50 (SR leukemia): 2.71 µM | TGI (SR leukemia): > 100 µM | GI50 (U251 CNS): 3.64 µM | TGI (U251 CNS): > 100 µM
